Laboratory results taken from patent US20150320772A1, “USE OF ACETYLSALICYLIC ACID TO PREVENT AND/OR TREAT DIABETIC WOUNDS” (LABORATOIRES URGO, priority 2012, published 2015).

Columns and labels:
[1] = system: human peripheral blood-derived monocytes differentiated into macrophages; assay: Viability of macrophages in vitro in the presence of acetylsalicylic acid (propidium iodide, flow cytometry); conditions: 72 h incubation
Protocol: Moreover, cell viability tests are carried out on macrophages for various concentrations of acetylsalicylic acid (FIG. 6).
This method of analysis comprises the use of human peripheral blood-derived monocytes placed in culture in RPMI medium, to which is added M-CSF at 10 ng/ml, for 24 hours in order to differentiate them into macrophages. Acetylsalicylic acid is added to the culture medium in a final concentration of 1000 μM or 5000 μM.
Cell mortality is analyzed, after 72 hours of incubation, by flow cytometry by measuring the cytoplasmic incorporation of propidium iodide.
The aim of such a cell viability test carried out in vitro is to verify the harmfulness of the dose administered to the cells found in the wound, and preferably in the present case to macrophages, which are considered to be a type of effector cell in the healing of the lesion being studied.

diabetic mice (HFD) = assay: Kinetics of cell infiltration into the wound (exudate) of diabetic mice (HFD) treated with acetylsalicylic acid; format: in vivo; conditions: 1000 μM solution, D7 post-lesion, versus control diabetic mice
Source text: FIG. 7: Kinetics of cell infiltration into the wound of “control” mice and diabetic mice (HFD) treated with acetylsalicylic acid.
HFD mice are murine models for induced diabetes, produced with C57BL/6 mice of 8 weeks of age. These mice follow a high calorie (high-fat) diet for 16 weeks. […] Unlike db/db mice, the diabetic state in these animals is not of genetic origin. The mice of the “control” group for the HFD mice are mice on a standard diet, also known by the abbreviation “NC”.
The cells from the exudate are recovered from D1 post-lesion until no more exudate is secreted by the wound. In order to determine the kinetics of polymorphonuclear neutrophil infiltration, the cells from the exudate from the lesion are characterized by flow cytometry by immunolabeling relating to the membrane receptors Ly6G, 7/4 (for the polymorphonuclear cells) and F4/80 (for the macrophages). A total of 10 000 events is analyzed for each sample. All the results are given in the form of percentage expression.
FIG. 7 describes the kinetics of cell infiltration carried out on “control” diabetic mice or on those to which has been applied a solution of 1000 μM of acetylsalicylic acid.

diabetic mice (db/db) = assay: Kinetics of wound closure in diabetic mice (db/db) treated topically with acetylsalicylic acid; format: in vivo; conditions: for wound closure (time to closure): from D3 post-lesion, NaCl control diabetic mice 26 days
Source text: These animals are characterized by hyperglycemia, insulin resistance and hypertriglyceridemia, which makes these mice the first choice as models for diabetes of genetic origin. The mice of the “control” group for the db/db mice are heterozygous db/+mice.
(§1) The mouse is anesthetized by means of isoflurane (halogenated anesthetic gas). The dorsal part and the flanks of the mouse are shaved and disinfected and a circular excision of close to 1 cm^2 is made. The connective tissue at the interface of the muscle tissue is removed without damaging the muscle fascia. The skin is totally excised as far as the panniculus carnosus.
The wound thus created is protected by a device such as described in the patent applications filed by Laboratoires Urgo, FR 11 62295 and FR 11 62344, which enables both protection of the wound and observation and evaluation of the healing kinetics, and enables exudate to be collected.
The wound healing process is observed from 0 to 30 days post-lesion. Between 3 and 5 very high resolution standardized digital photographs are taken for each animal. The percentage wound closure is based on changes in surface area calculated for the same injury on the same mouse and for the indicated time points. Thus, the mean calculated for wound healing (as a percentage) over the 3 mice in a group is obtained independently and the statistics are calculated from 3 groups of 3 independent experiments.
as §1, with “As already described above, the mouse” for “The mouse”, “of isoflurane.” for “of isoflurane (halogenated anesthetic gas).”
In the meantime, the reference solution of acetylsalicylic acid is prepared at 5 mM. This solution will be used to prepare the solutions with concentrations of 100 μM, 200 μM, 300 μM, 1 mM, 2 mM, 2.9 mM, 4.8 mM and 5 mM.
Solutions with concentrations of 100 μM, 200 μM, 300 μM, 1 mM, 2 mM, 2.9 mM, 4.8 mM and 5 mM of acetylsalicylic acid are tested.
A volume of between 50 and 500 μl is taken off from each solution and placed in contact with the wound via a device such as described through the patent applications filed by Laboratoires Urgo, FR 11 62295 and FR 11 62344.
It is noteworthy that this placing of a predefined concentration of acetylsalicylic acid in contact with the site of healing is carried out starting from the third day post-lesion. Indeed, it is in this period that the delay in healing appears in the diabetic mice, compared to the “control” mice (FIGS. 1A and 1B). Moreover, in the context of treating diabetic patients, the treated wounds will already be formed and will be arrested in the inflammatory phase. No chronic wounds, and more particularly diabetic wounds, are treated as soon as they appear. Moreover, the inflammatory phase is an indispensable phase in healing, since it enables the damaged area to be cleaned and deterged by virtue of the infiltration of inflammatory cells such as polymorphonuclear neutrophils. It is therefore necessary to retain inflammation to initiate effective healing, and thus to not entirely block this phase. This is why treatment with acetylsalicylic acid is only proposed starting from D3 post-lesion.

In the case of `CC(=O)Oc1ccccc1C(=O)O` [acetylsalicylic acid], the cell toxicity ([1]; 1000 μM) is reported as “no cell toxicity”, the “reduction of cell viability” value ([1]; 5000 μM) is reported as 20% and the “number of cells infiltrating the site of the lesion” value (diabetic mice (HFD)) is reported as “significant reduction”. The “effect on the healing kinetics compared with control diabetic mice” value (diabetic mice (db/db); 100 μM solution, topical) was “No effect whatsoever”, the “wound closure (time to closure)” value (diabetic mice (db/db); 300 μM solution, topical) was “around twenty” and the “resolution of inflammation compared to control diabetic mice” value (diabetic mice (db/db); 300 μM, 1000 μM and 2000 μM solutions, topical, early phase D3 to D7 post-lesion) was “very clear acceleration of resolution of inflammation”. For the same compound, the “wound closure (time to closure)” value (diabetic mice (db/db); 1000 μM solution, topical) was “around twenty”, the “effect on the healing kinetics compared with control diabetic mice” value (diabetic mice (db/db); 5000 μM solution, topical) was “No effect whatsoever” and the “speed of wound closure (overall conclusion)” value (diabetic mice (db/db); concentration of between 100 μM and 4800 μM, administered from D3 post-lesion) was “increased speed of wound closure”.
